From a melting point compilation (Tetko et al.; mined from patent text by program, amines drawn as free bases though some values may be those of a salt) come the findings set out here.

`COc1cc(OC)cc(-c2ncn(-c3cc(OC)c(OC)c(OC)c3)c2-c2ccc(OC)c(O)c2)c1` had a melting point of 110 to 111 °C.
Under `N#Cc1ccccc1NCc1nc2ccc(F)cc2c(=O)n1-c1cccnc1Cl` stands 183 to 187 °C.
Under `CC(C)CC(NC(=O)C(Cc1ccccc1)NC(=O)C1CCCCC1CS)C(=O)O` (configuration not stated) stands 156 to 158 °C; under `CCCCn1c(=O)c2c(NC)n(C)nc2n(Cc2ccccc2)c1=O`, 146 to 148 °C; under `O[C@H]1COC(c2ccccc2)=N[C@@H]1c1ccccc1` (racemic), 150 °C.
Under `O=C(OCCn1cnc2c(Cl)nc3ccccc3c21)c1ccccc1` stands 186 °C; under `CC(=O)N(C(C)=O)c1cc2c(Nc3ccc(Sc4nccn4C)c(Cl)c3)c(C#N)cnc2cc1N1CCC(N2CCCC2)CC1`, 245 to 247 °C; under `CCC(=O)N1CCSc2cccc(Cl)c2C1`, 55 to 57 °C.
On to `COc1ccc([N+](=O)[O-])c(C2OCCO2)c1OC`, for which the melting point is 74 to 76 °C.
To `C=CC(CC(O)C(CC1CCCCC1)NC(=O)C(Cc1c[nH]cn1)NC(=O)C(Cc1ccccc1)N(C)C(=O)CC(C)(C)C)C(C)C` (configuration not stated) belongs 126 °C; to `O=C(CCCN1CCCC1=O)Nc1ncccc1C(=O)c1cccs1`, 143 to 145 °C.
To `COC(=O)C(=O)c1ccc(Cl)cc1` belongs 56 to 57 °C.
In the case of `S=C(CCC(c1ccccc1)(c1ccccc1)c1ccccc1)Oc1c(Cl)c(Cl)c(Cl)c(Cl)c1Cl`, the melting point was in the range of 154 to 156 °C.
To `CCc1nc2c(N)nc3cc(OCc4ccccc4)ccc3c2n1CCCCNS(C)(=O)=O` belongs 214 to 215 °C.
Under `COC(=O)N1CCC(c2ccc(N3C[C@H](CNC(C)=O)OC3=O)cc2F)CC1` stands 165 to 166 °C; under `Cc1c(C(=O)Nc2ccc(N3CCN(C4CCOCC4)CC3)c(C#N)c2)cnn1-c1ccc(F)c(F)c1`, 235 °C.
Under `NC(=O)NS(=O)(=O)c1cccc(Cl)c1Cl` stands 197 to 200 °C.
The compound `CNS(=O)(=O)c1cnc2ccc(OC)cc2c1O` had a melting point of 293 to 294 °C.
To `COCCOCc1nn(C)c2c1N=C(c1ccc(-n3c(C)nc4cnccc43)cc1)CC(=O)N2C` belongs 142 to 144 °C; to `C#CCN1C(=O)COc2ccc(-n3c(Cl)nc(C(F)(F)F)cc3=O)cc21`, 143 to 145 °C.
Take `CCc1ccc2c(=O)c(C(N)=O)cn(C)c2c1`: the melting point was in the range of 255 to 256 °C.
To `COCCOc1c(C)cc(-c2nc3cc(OC)cc(OC)c3c(=O)[nH]2)cc1C` belongs 201 to 202 °C.
Regarding `CC(C)(C)OC(=O)Nc1ccc2nc(-c3cccnc3)nn2c1`, the melting point is 296 °C.
`COc1ccc2c(CO)c(F)ccc2c1C(F)(F)F` displayed a melting point of 113 to 114 °C.
To `COc1ccc(/C=C(\C#N)c2ccccn2)cc1OC1CCCC1` belongs 82.5 to 83 °C; to `CSc1cc2cc(C)ccc2cc1C=O`, 117 to 118 °C.
To `CNc1cc(S(=O)(=O)c2ccccc2)ccn1` belongs 142 to 143 °C; to `CC(C)(O)c1ccoc1C(=O)c1[nH]c2cc(Cl)ccc2c1CC(=O)O`, 229 to 230 °C; to `CCN(CC)CCNC(=O)c1cc(Cl)c(N)cc1OC1CCCCC1=O` (configuration not stated), 96 to 99 °C.
To `CCCc1ncc(CO)c(NCc2ccc(-c3ccccc3-c3nnnn3C(c3ccccc3)(c3ccccc3)c3ccccc3)cc2)n1` belongs 134 to 137 °C; to `O=C(Cc1c2c(nn1-c1ccccc1)c(Cl)nc1ccccc12)N1CCN(Cc2ccccc2)CC1`, 210 to 212 °C; to `Cc1cc(C)c2occ(-c3ccccc3)c2c1`, 131 to 132 °C.
Take `CC(=O)Nc1c(C(=O)c2ccc(OC(F)(F)F)cc2)[nH]c2cc(Cl)ccc12`: the melting point was 213 to 214 °C.
Under `O=c1oc2ccccc2c(O)c1CCCOc1ccccc1` stands 125 to 126 °C; under `COc1ccc(-c2cc(C=O)[nH]c2-c2ccc(OC)cc2)cc1`, 165 to 166 °C.
`CCN1CCN(C2=Nc3cc(Cl)ccc3Sc3ccccc32)CC1` yielded a melting point of 100 to 101 °C.
Compound `COc1cn(-c2ccc(-n3cccn3)cc2F)nc(-c2ccnn2-c2ccccc2)c1=O` displayed a melting point of 214 to 216 °C.
Regarding `COc1ncc(F)c2nc(S(=O)(=O)Nc3c(F)cc(Cl)cc3F)nn12`, the melting point fell in the range of 203 to 204 °C.
To `C=CCN1CCc2c(sc(N)c2C(=O)c2ccc(Cl)cc2)C1` belongs 118 to 120 °C.
Compound `CCOc1cc(OCC(=O)O)cc2c1C(=O)N(COC(=O)c1c(Cl)cccc1Cl)S2(=O)=O` had a melting point of 179 to 180 °C.
Under `CCN1c2ncc(COc3ccc(O)cc3)cc2C(=O)N(C)c2ccc(Cl)nc21` stands 199 to 200 °C; under `Cc1c(C(C)(C)C)cc(C(C)C)c(-c2c(C(C)C)cc(C(C)(C)C)c(C)c2O)c1O`, 105 to 108 °C; under `CN(C)CCOc1cc2c(Nc3ccc(Cl)cc3F)c(C#N)cnc2cn1`, 150 to 152 °C.
Under `O=C(CSCc1ccc(Cl)cc1Cl)NO` stands 116 °C; under `CC(=O)Nc1cc(OCCC(=O)O)ccc1Oc1ccccc1`, 138 to 140 °C; under `Cc1cc(SCc2ccc(OCc3ccc(C(F)(F)F)cc3)cc2)ccc1OCC(=O)O`, 133 °C.
Under `FC(F)(F)c1cccc(Nc2nc(NCc3ccco3)nc(-c3ccccc3)n2)c1` stands 133 to 134 °C; under `Cc1cc(N2CCN(c3c(C)c(C)c4c(c3C)CC(C)(C)O4)CC2)ccc1F`, 143 to 145 °C.
For the compound `COC(=S)C(=Cc1ccccc1)N1CC(N2C(=O)c3ccccc3C2=O)C1=O` (configuration not stated), the melting point was 170 to 171 °C.
`Cc1nc(N2CCCC(CO)C2)c2nc(-c3ccccc3)cc-2[nH]1` (configuration not stated): the melting point was in the range of 255 to 256 °C.
To `CCCc1c(C(=O)OCC)c2c3c(ccc2n1C)OC1c2ccc(OC)cc2CCN1C3` (configuration not stated) belongs 150 to 151 °C.
On to `CC1=C(c2ccccc2)n2nc(C)c(C(N)=O)c2NC1`, for which the melting point was in the range of 208 to 210 °C.
Under `CCOC(=O)C1=Cc2ccsc2S(=O)(=O)N1c1cccc(OC)c1` stands 107 to 109 °C; under `Nc1c2c(nc3ccccc13)CCSC2`, 214 to 216 °C; under `C[C@@H](c1ccc(-c2ccn(C3CC3)c(=O)c2)cc1)N1CC[C@](CC(C)(C)O)(c2ccccc2)OC1=O`, 91 to 94 °C.
Under `CCOC(=O)Nc1cc(N(C(=O)OCC)S(C)(=O)=O)c(C#N)cc1F` stands 129 °C.
To `COc1cc(OC)cc(C(=O)NCCCSc2ccncc2)c1` belongs 110 to 111 °C; to `CC(Cc1cccnc1)NC(=O)[C@@H]1C[C@H](C)CC[C@H]1C(C)C` (some centres not stated), 108 to 110 °C; to `CC(C)S(=O)(=O)ON=C(C#N)c1cccs1`, 80 to 82 °C.
As to `O=C(Oc1ccc([N+](=O)[O-])cc1)C(O)O`, the melting point was 100 to 102 °C.
Under `CN(C)CCCOc1ccc(C[C@H](NC(=O)[C@@H]2CCCN2S(=O)(=O)c2cc(Cl)sc2Cl)C(=O)O)cc1` stands greater than 200 °C.
To `CCC(=O)C(Cc1c(F)cccc1F)C(=O)CC` belongs 55 to 56 °C; to `CCOC(=O)c1ncn2c1CNC(=O)c1ccccc1-2`, 248 to 250 °C; to `O=c1oc2ccccc2c(O)c1CCC(O)c1ccccc1` (configuration not stated), 138 to 140 °C.
As for `O=S(=O)(Nc1ccccc1CO)C(F)(F)F`, the melting point fell in the range of 60 to 61 °C.
For `CCc1nc(N)nc(N)c1-c1ccc(NC)c([N+](=O)[O-])c1`, the melting point is 262 to 265 °C.
Turning to `COC(=O)CCCC(C)(C)c1cc(Cl)c(O)c(Cl)c1`, the melting point was 101 to 103 °C.
To `Cn1nc(-c2ccc(C(=O)N3CCN(C4CCCC4)CC3)cc2)ccc1=O` belongs 177 to 179 °C; to `CC(C)(C)c1cc(C=C2Sc3ccccc3N(CC(N)=O)C2=O)cc(C(C)(C)C)c1O`, 137 to 144 °C.
`CCCCc1oc2ccccc2c1-c1ncc(-c2ccc3cc(OCc4ccc(C(=O)OC)cc4C(=O)OC)ccc3c2)o1` had a melting point of 195 to 197 °C.
`CCN(CC)c1nc2ccccc2n2c(C)nnc12` had a melting point of 123 to 125 °C.
Under `CNc1cc(C(F)(F)F)on1` stands 39 to 41 °C.
To `COc1ccc(CCNC(=O)C2CCC2)cc1C` belongs 103 to 104 °C; to `CN(C(=O)c1ccccc1)c1cccc(-c2nc(=O)c3ccccc3s2)n1`, 234 to 235 °C; to `O=C1NCC(CCc2ccccc2F)O1` (configuration not stated), 73 to 74 °C.
To `NCC1(c2cccc(C(F)(F)F)c2)CCN(C(=O)CN2CCN(c3cnccn3)CC2)CC1` belongs 152 to 153 °C; to `CCS(=O)(=O)n1cc(C(=O)c2ccn3c2CSC3c2cccnc2)c2ccc(-c3ccc(F)cc3)cc21` (configuration not stated), 132 °C.
On to `Cc1ccc2c(=O)[nH]c(C3CCN(C)CC3)cc2c1`, for which the melting point was 236 to 238 °C.
Under `CCc1[nH]n(C2CCCC2)c2nc(-c3ccc(OCCCN(C)C)cc3)nc(=O)c1-2` stands 175 to 178 °C; under `CC(C)(C)OC(=O)Nc1cccc(OC2CCN(c3ccncc3)CC2)c1`, 165 to 166 °C; under `CCS(=O)(=O)Nc1ccc(S(=O)(=O)C=CC#N)cc1`, 177 to 180 °C.
Under `C=C1CC1(c1ccc(OC)cc1)c1ccc(OC)cc1` stands 31 to 32 °C; under `Nc1cc(-n2cc(C(=O)O)c(=O)c3cc([N+](=O)[O-])c(F)c(F)c32)c(F)cc1F`, 142 to 143 °C; under `FC(F)(F)c1cccc(-c2ccnc3ccnn23)c1`, 103 to 104 °C.
To `Cn1cc(F)cnc1=O` belongs 177 to 178 °C.
Regarding `Nc1ncc(-c2ccccc2)nc1SC1CCCC1`, the melting point lay within 92 to 94 °C.
In the case of `COc1ccc(N2CCN(c3c(C)c(C)c4c(c3C)C(=O)C(C)(C)O4)CC2)cc1`, the melting point is 144 to 146 °C.

In general, melting point refers to the temperature, or range, at which the solid turns liquid.
